Literature values in patent US5849729A, “Use of hydrolyzed cocoa butter for percutaneous absorption” (Hershey Foods Corporation, priority 1995, dated 1998).
Read-outs that look alike come from different tables or passages of the source.

Details: cited from earlier work
[1] = in vivo, topical or ocular, 120 h

Row | Compound | Absorption Rate 0-12 (in vivo) | Absorption Rate 12-24 (in vivo) | Absorption Rate 24-48 (in vivo) | Absorption Rate 48-72 (in vivo) | Absorption Rate 72-96 (in vivo) | Absorption Rate 96-120 (in vivo) | Total Absorption (T of above) (topical, 0-120 hrs) | Absorption Rate 0-12 (topical, 0-12 hrs) | Absorption Rate 12-24 (topical, 12-24 hrs) | Absorption Rate 24-48 (topical, 24-48 hrs) | Absorption Rate 48-72 (topical, 48-72 hrs) | Absorption Rate 72-96 (topical, 72-96 hrs) | Absorption Rate 96-120 (topical, 96-120 hrs) | absorption through the skin of closely related corticosteroid compounds (published literature, topical) | Total Absorption (T of above) [1] | absorption through the skin of closely related corticosteroid compounds (in vivo, topical or ocular)
1 | C[C@]12CCC(=O)C=C1CC[C@@H]1[C@@H]2CC[C@@]2(C)[C@H]1CC[C@]2(O)C(=O)CO [17-OII DOC] | .041 % hr | .101 % hr | .084 % hr | .076 % hr | .062 % hr | .065 % hr | 8.41 % of the dose | – | – | – | – | – | – | – | – | –
2 | CC(=O)[C@@]1(O)CC[C@H]2[C@@H]3CCC4=CC(=O)CC[C@]4(C)[C@H]3CC[C@@]21C [17-OII Progesterone] | – | – | – | – | – | – | 14.76 % of the dose | – | – | – | – | – | – | – | – | –
3 | C[C@]12CCC(=O)C=C1CC[C@@H]1[C@@H]2CC[C@]2(C)C(=O)CC[C@@H]12 [Androstenedione] | – | – | – | – | – | – | 13.47 % of the dose | .183 % hr | .334 % hr | .155 % hr | .076 % hr | .043 % hr | .028 % hr | – | – | –
4 | C[C@]12C[C@H](O)[C@H]3[C@@H](CCC4=CC(=O)CC[C@@]43C)[C@@H]1CC[C@@H]2C(=O)CO [Corticosterone] | – | – | – | – | – | – | 8.78 % of the dose | .013 % hr | .065 % hr | .139 % hr | .070 % hr | .050 % hr | .039 % hr | – | – | –
5 | C[C@]12CCC(=O)C=C1CC[C@@H]1[C@@H]2C(=O)C[C@@]2(C)[C@H]1CC[C@]2(O)C(=O)CO [Cortisone] | – | – | – | – | – | – | 3.38 % of the dose | .015 % hr | .037 % hr | .039 % hr | .036 % hr | .032 % hr | .024 % hr | 1-3 % of the dose | – | –
6 | C[C@]12CC[C@H](O)CC1=CC[C@@H]1[C@@H]2CC[C@]2(C)C(=O)CC[C@@H]12 [Dehydroepiandrosterone] | – | – | – | – | – | – | 18.45 % of the dose | .265 % hr | .446 % hr | .249 % hr | .091 % hr | .046 % hr | .028 % hr | – | – | –
7 | C[C@]12CC[C@H]3[C@@H](CCC4=CC(=O)CC[C@@]43C)[C@@H]1CC[C@@H]2C(=O)CO [Desoxycorticosterone] | – | – | – | – | – | – | – | .197 % hr | .313 % hr | .143 % hr | .069 % hr | .035 % hr | .020 % hr | – | 12.55 % of the dose | –
8 | C[C@@H]1C[C@H]2[C@@H]3CCC4=CC(=O)C=C[C@]4(C)[C@@]3(F)[C@@H](O)C[C@]2(C)[C@@]1(O)C(=O)CO [Dexamethasone] | – | – | – | – | – | – | .40 % of the dose | .005 % hr | .003 % hr | .004 % hr | .003 % hr | .002 % hr | .002 % hr | – | – | –
9 | C[C@]12CC[C@@H]3c4ccc(O)cc4CC[C@H]3[C@@H]1CC[C@@H]2O [Estradiol] | .008 % hr | .056 % hr | .099 % hr | .101 % hr | .107 % hr | .103 % hr | – | – | – | – | – | – | – | – | 10.62 % of the dose | –
10 | CC1(C)O[C@@H]2C[C@H]3[C@@H]4C[C@H](F)C5=CC(=O)C=C[C@]5(C)[C@@]4(F)[C@@H](O)C[C@]3(C)[C@]2(C(=O)CO)O1 [Flucinoione Acetonide, fluocinolone acetonide] | .002 % hr | .011 % hr | .012 % hr | .016 % hr | .008 % hr | .005 % hr | 1.34 % of the dose | – | – | – | – | – | – | 1-3 % of the dose | – | –
11 | CC(=O)OCC(=O)[C@@]1(O)CC[C@H]2[C@@H]3CCC4=CC(=O)CC[C@]4(C)[C@H]3[C@@H](O)C[C@@]21C [Hydrocortisone Acetate] | .020 % hr | .089 % hr | .032 % hr | .024 % hr | .015 % hr | .008 % hr | – | – | – | – | – | – | – | – | 2.55 % of the dose | 1-3 % of the dose
12 | C[C@]12CCC(=O)C=C1CC[C@@H]1[C@@H]2[C@@H](O)C[C@@]2(C)[C@H]1CC[C@]2(O)C(=O)CO [Hydrocortisone] | .005 % hr | .023 % hr | .019 % hr | .018 % hr | .016 % hr | .010 % hr | – | – | – | – | – | – | – | – | 1.87 % of the dose | 1-3 % of the dose
13 | CC(=O)[C@H]1CC[C@H]2[C@@H]3CCC4=CC(=O)CC[C@]4(C)[C@H]3CC[C@]12C [Progesterone] | .208 % hr | .264 % hr | .135 % hr | .045 % hr | .024 % hr | .011 % hr | – | – | – | – | – | – | – | – | 10.81 % of the dose | –
14 | CC(=O)O[C@H]1CC[C@H]2[C@@H]3CCC4=CC(=O)CC[C@]4(C)[C@H]3CC[C@]12C [Testosterone Acetate] | – | – | – | – | – | – | 4.62 % of the dose | .103 % hr | .133 % hr | .048 % hr | .015 % hr | .007 % hr | .004 % hr | – | – | –
15 | CCC(=O)O[C@H]1CC[C@H]2[C@@H]3CCC4=CC(=O)CC[C@]4(C)[C@H]3CC[C@]12C [Testosterone Propionate] | – | – | – | – | – | – | 3.44 % of the dose | .061 % hr | .096 % hr | .035 % hr | .015 % hr | .009 % hr | .005 % hr | – | – | –
16 | C[C@]12CC[C@H]3[C@@H](CCC4=CC(=O)CC[C@@]43C)[C@@H]1CC[C@@H]2O [Testosterone] | – | – | – | – | – | – | 13.24 % of the dose | .147 % hr | .364 % hr | .156 % hr | .066 % hr | .036 % hr | .018 % hr | – | – | –
